Results reported in patent US20210260069A1, “IRE1a INHIBITOR IN COMBINATION WITH CANCER [sequence] AGENT FOR CANCER TREATMENT” (Fosun Orinove PharmaTech, Inc., priority 2018, published 2021).
Where two headings read alike, the source gives them in different places.

What was measured:
[1] = Oral bioavailability test, rat; settings: in vivo, 10 mg/kg dose
Description: (§1) All PK experiments are standard tests that performed in either WuXi PharmaTech or Charels River Laboratory. 4315 and 4485 (Orin 1001) were dosed PO as a suspension in 1% microcellulose (Sigma) and 50% Sucrouse (Sigma).

[2] = Oral bioavailability test, dog; settings: in vivo, 10 mg/kg dose
Description: as §1

IRE1α = molecular target: T1, IRE1α (Mus musculus, UniProt Q9EQY0); assay: Liver PD screening assay: XBP-1 splicing analysis of liver after tunicamycin (Example 25); format: in vivo, BALB/c mice
T1 construct: from tissue; host or cells: liver of BALB/c mice (in vivo)
T1 sequence (Q9EQY0 21-977): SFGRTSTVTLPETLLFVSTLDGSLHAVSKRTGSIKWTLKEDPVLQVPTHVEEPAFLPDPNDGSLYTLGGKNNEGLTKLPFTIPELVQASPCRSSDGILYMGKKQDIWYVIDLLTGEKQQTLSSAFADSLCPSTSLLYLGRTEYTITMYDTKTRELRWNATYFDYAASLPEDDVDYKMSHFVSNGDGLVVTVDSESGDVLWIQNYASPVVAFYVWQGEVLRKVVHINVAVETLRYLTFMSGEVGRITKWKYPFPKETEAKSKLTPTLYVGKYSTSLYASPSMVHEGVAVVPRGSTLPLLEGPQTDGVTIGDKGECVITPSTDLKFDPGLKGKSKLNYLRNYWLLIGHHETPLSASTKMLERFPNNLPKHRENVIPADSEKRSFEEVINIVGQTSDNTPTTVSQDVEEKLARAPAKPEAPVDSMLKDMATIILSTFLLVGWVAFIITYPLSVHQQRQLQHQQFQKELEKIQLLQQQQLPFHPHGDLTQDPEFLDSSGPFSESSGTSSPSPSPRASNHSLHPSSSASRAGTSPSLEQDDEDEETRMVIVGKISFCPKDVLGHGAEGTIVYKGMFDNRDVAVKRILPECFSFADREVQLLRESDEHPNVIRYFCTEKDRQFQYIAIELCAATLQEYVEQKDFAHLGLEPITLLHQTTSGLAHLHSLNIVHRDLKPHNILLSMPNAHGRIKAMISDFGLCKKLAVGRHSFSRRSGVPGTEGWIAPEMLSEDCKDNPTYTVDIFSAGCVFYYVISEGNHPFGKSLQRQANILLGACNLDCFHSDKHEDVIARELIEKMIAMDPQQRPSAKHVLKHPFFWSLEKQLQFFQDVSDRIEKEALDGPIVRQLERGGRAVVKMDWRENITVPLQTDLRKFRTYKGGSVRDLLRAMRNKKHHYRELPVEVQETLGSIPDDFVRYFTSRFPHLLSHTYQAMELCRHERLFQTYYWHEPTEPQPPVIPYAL
Description: Example 25 was related to comparative PD/PK data of Orin 1001 VS compound 4315, as its structure shown below, which is an earlier lead of this series of compounds. Tunicamycin was used herein to activate IRE1, then Orin 1001 (also called 4485) or 4315 were given to inhibit the activating effect. […] Each gel panel represents one mouse liver sample as in the figure.
BALB/c mice were injected intraperitoneally with 100 microliters at an equivalent dose of 1 mg/kg tunicamycin solution. Two hours after tunicamycin injection, mice were dosed with compound of interest either PO or IV. Following 2 hours for PO delivery of compound, mice were euthanized according to IACUC protocols using CO2 from a […] source. A 1 cm^3 fragment of the liver for homogenization and extraction of the RNA were collected for further analysis. Total RNA is harvested from cells or tissue using TRIzol according to the manufacturer's procedures. After ethanol precipitation and resuspension of the RNA, RiboGreen (Invitrogen) is used to quantify the yield and normalize the RNA concentration in the source tube containing isolated RNA. RT-PCR is performed by Oligo(dT) priming, and SuperScript II (Invitrogen) transcription using the Amplitaq Gold Kit (Applied Biosystems) according to the manufacturer's protocols. Primers for human XBP-1 are 5_-[…]-3_ (forward, Seq ID No. 8) and 5_-[…]-3_ (reverse, Seq ID No. 9), and for mouse are 5_-[…]-3_ (forward, Seq ID No. 10) and 5_-[…]-3 (Seq ID No. 11). All DNA oligos were purchased from IDT DNA Technologies. PCR is run on a Bio-Rad PTC-100 96-well thermocycler with heating at 94° C. for 30 s, annealing at 58° C. for 30 s, and polymerizing at 72° C. for 30 s for 35 cycles. Reactions are run on 4% precast NuSieve gels from Cambrex and visualized by ethidium bromide staining and UV excitation.
as §1

[3] = Oral bioavailability test, mouse; settings: in vivo, 5 mg/kg dose
Description: as §1

With `Cc1c(-c2ccc(C(=O)NCCN3CCOCC3)cc2)c(=O)oc2c(C=O)c(O)ccc12` [compound 4315] the bioavailability [1] was 36%, the bioavailability [2] was 17% and the ED50 (IRE1α; read-out: ED50 (inhibition of XBP-1 splicing in liver), PO, 2 hours after tunicamycin 1 mg/kg ip, liver 2 hours after dosing, FIG. 23) was over 10 mg/kg. For the same molecule, the ED50 (IRE1α; read-out: ED50 (inhibition of XBP-1 splicing in liver), separate experiment) was 50 mg/kg and the bioavailability [3] was 23%.
